Measured values taken from PubChem BioAssay (NCI).
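These data come from cells grown in 96-well plates and exposed to compound for 48 hours at five concentrations. At the GI50, growth is halved. At the TGI there is no net growth.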 Where a SMILES comes first, the peptide text is derived from it. [ ]: non-standard residue; d: D form. The star is where a group is joined. ξ: configuration not given here. X3 = COc1ccc(C(N*)c2ccc(OC)cc2)cc1; NMeF = CN[C@@H](Cc1ccccc1)C(=O)O; NMeD = CN[C@@H](CC(=O)O)C(=O)O; NMeV = CN[C@H](C(=O)O)C(C)C; ξNMeV = CNC(C(=O)O)C(C)C; Boc = CC(C)(C)OC(=O)*; ξNMeA = CNC(C)C(=O)O; ξV = CC(C)C(N)C(=O)O

Tests used:
Test in all cases: NCI tumour cell line growth inhibition, 48 h
DMS 114 small cell lung = test system: DMS 114 small cell lung
M19-MEL melanoma = test system: M19-MEL melanoma
XF 498 CNS = test system: XF 498 CNS
DLD-1 colon = test system: DLD-1 colon
LXFL 529 NSCLC = test system: LXFL 529 NSCLC
KM20L2 colon = test system: KM20L2 colon
MDA-N = test system: MDA-N
RXF-631 renal = test system: RXF-631 renal
SN12K1 renal = test system: SN12K1 renal

SMILES | TGI (DMS 114 small cell lung) | TGI (M19-MEL melanoma) | TGI (XF 498 CNS) | TGI (DLD-1 colon) | TGI (LXFL 529 NSCLC) | TGI (KM20L2 colon) | TGI (MDA-N) | GI50 (DMS 114 small cell lung) | GI50 (M19-MEL melanoma) | GI50 (XF 498 CNS) | GI50 (DLD-1 colon) | GI50 (LXFL 529 NSCLC) | GI50 (RXF-631 renal) | TGI (RXF-631 renal) | GI50 (KM20L2 colon) | TGI (SN12K1 renal)
S=c1sc2c(n1-c1ccccc1)NC=NC2S (centres undefined) | > 100 µM | > 100 µM | > 100 µM | > 100 µM | > 100 µM | > 100 µM | – | – | – | – | – | – | – | – | – | –
CC(=O)CC(OC(C)=O)C1=CCC2C(CC1C)OC(=O)C2C (centres undefined) | – | – | – | – | – | – | > 100 µM | – | – | – | – | – | – | – | – | –
O=c1ccc2ccccc2cc1[O-].O=c1ccc2ccccc2cc1[O-].[O]=[U+2]=[O] | 55.3 µM | 96.7 µM | 40 µM | > 100 µM | 51.6 µM | 90.1 µM | – | 19.9 µM | 24.8 µM | 19.5 µM | 19.5 µM | 16.8 µM | 11.1 µM | 41.6 µM | 4.5 µM | –
C/C(=N/Nc1ccc([N+](=O)[O-])cc1[N+](=O)[O-])C(CC(C(=O)NCc1ccccc1)/C(C)=N\Nc1ccc([N+](=O)[O-])cc1[N+](=O)[O-])C(=O)NCc1ccccc1 (centres undefined) | 23.8 µM | 23.9 µM | – | 29.4 µM | 23.6 µM | 37.5 µM | – | – | – | – | – | – | – | 20 µM | – | –
CC(=O)NNc1nc(C)c(C(=O)/C=C/c2ccc(NC(C)=O)cc2)s1 | – | > 100 µM | – | > 100 µM | – | > 100 µM | – | – | – | – | – | – | – | > 100 µM | – | –
O=C(Nc1ccccc1-c1nn(C(=S)Nc2ccccc2)c(=S)n(C(=S)Nc2ccccc2)c1=O)C(F)(F)F | 38.9 µM | > 94.9 µM | 61.5 µM | > 100 µM | 54 µM | > 100 µM | – | – | – | – | – | – | – | – | – | –
COc1ccc(C(NC(=O)C[C@@H](C(=O)N(C)C(C)C(=O)O)N(C)C(=O)[C@@H]2CCCN2C(=O)[C@H](C(C)C)N(C)C(=O)C(C(C)C)N(C)C(=O)[C@H](Cc2ccccc2)N(C)C(=O)C(NC(=O)OC(C)(C)C)C(C)C)c2ccc(OC)cc2)cc1 (some centres undefined) (Boc-[ξV][NMeF][ξNMeV][NMeV]P[NMeD](X3)[ξNMeA]-OH) | 33.4 µM | 34.4 µM | 29.5 µM | 32.1 µM | 27.9 µM | 37.6 µM | 32.7 µM | – | – | – | – | – | – | – | – | –
CC(C)(C)c1cc2ccc(C(N)=O)cc2c(=O)[nH]1 | > 100 µM | > 100 µM | – | > 100 µM | > 100 µM | > 100 µM | – | – | – | – | – | – | – | > 100 µM | – | –
CC(=O)OCCOCNC(=S)N/N=C(\C)c1cnccn1 | 51.4 µM | 46.3 µM | > 100 µM | > 100 µM | > 100 µM | 81.3 µM | – | – | – | – | – | – | – | – | – | –
CN(C)CC1CC/C(=C\c2ccc(O)cc2)C1=O (centres undefined) | 23.5 µM | 7.55 µM | 11.3 µM | 6.27 µM | 3.45 µM | 22.1 µM | 6.8 µM | – | – | – | – | – | – | – | – | 3.4 µM
Cc1ccc(Oc2ccc(C)cc2N)cc1 | > 100 µM | > 100 µM | – | > 100 µM | > 100 µM | > 100 µM | – | – | – | – | – | – | – | – | – | –
CC(C)(C)c1cc2c(O)c3cccc4c(=O)c5cccc6c5-c(c34)c2c(c1)c6=O | – | > 100 µM | 88.5 µM | > 100 µM | > 100 µM | > 100 µM | – | – | – | – | – | – | – | – | – | –
Cc1ccc(/C=C/C(=O)CCN(C)C)cc1 | 32.5 µM | 38.7 µM | 28.5 µM | 33.7 µM | 34.2 µM | 37.2 µM | – | – | – | – | – | – | – | – | – | –
O=C(/C=C/c1ccc(O)cc1)c1ccc(O)cc1 | 43.8 µM | 42.2 µM | 34.1 µM | 36.9 µM | – | 47 µM | > 88.4 µM | – | – | – | – | – | – | – | – | –
COc1nc(NC2OC(COC(C)=O)C(OC(C)=O)C(OC(C)=O)C2OC(C)=O)c2c(OC(C)=O)cc(=O)oc2n1 (centres undefined) | > 100 µM | > 100 µM | > 100 µM | > 100 µM | > 100 µM | > 100 µM | – | – | – | – | – | – | – | – | – | –
N[C@@H]1CCCC[C@@H]1N.O=P([O-])([O-])CN(CCN(CP(=O)([O-])[O-])CP(=O)([O-])[O-])CP(=O)([O-])[O-].[Pt+2] | – | – | – | – | – | > 25 µM | – | – | – | – | – | – | – | – | > 25 µM | –
